Ki data for one compound are collected here from patent US7893256B2, “Azabicycloalkane compounds” (Theravance, Inc., priority 2003, dated 2011).

For orientation: Ki means the equilibrium dissociation constant of an inhibitor or competing ligand from its target.

Experiment [1] has as its target T1, M3 muscarinic receptor (hM3) (Homo sapiens, UniProt P20309).
T1 construct: expressed in transfected cells; membranes
Put plainly: Radioligand binding assay for muscarinic receptors (Assay Test Procedure B). The settings on record: radioligand displacement, CHO cell membranes, [3H]-NMS. The procedure: CHO cell lines stably expressing cloned human hM1, hM2, hM3 and hM4 muscarinic receptor subtypes, respectively, were grown to near confluency in HAM's F-12 media supplemented with 10% FBS and 250 μg/mL Geneticin. The cells were grown in a 5% CO2, 37° C. incubator and lifted with 2 mM EDTA in dPBS. Cells were collected by 5 minute centrifugation at 650×g, and cell pellets were either stored frozen at −80° C. or membranes were prepared immediately for use. For membrane preparation, cell pellets were resuspended in lysis buffer and homogenized with a Polytron PT-2100 tissue disrupter (Kinematica AG; 20 seconds×2 bursts). Crude membranes were centrifuged at 40,000×g for 15 minutes at 4° C. […] The protein concentration of the membrane suspension was determined by the method described in Lowry et al., 1951, Journal of Biochemistry, 193, 265. […]
Radioligand binding assays for cloned human muscarinic receptors were performed in 96-well microtiter plates in a total assay volume of 100 μL. […] Filter plates were rinsed three times with wash buffer (10 mM HEPES) to remove unbound radioactivity. […] The plates were then counted in a PerkinElmer Topcount liquid scintillation counter (PerkinElmer Inc., Wellesley, Mass.). Binding data were analyzed by nonlinear regression analysis with the GraphPad Prism Software package (GraphPad Software, Inc., San Diego, Calif.) using the one-site competition model. […]
On the technique in general: In a radioligand displacement assay an active substance lowers the binding of a labelled ligand.

In the next experiment the target is T2, hM3 receptor (Homo sapiens, UniProt P20309).
T2 construct: expressed in transfected cells
The experiment in a line: Blockade of agonist-mediated calcium release via FLIPR assays (Assay Test Procedure D, C). The settings on record: CHO cells stably expressing the hM3 receptor. It is filed as cell-based. The source says: Muscarinic receptor subtypes (M1, M3 and M5 receptors), which couple to Gq proteins, activate the phospholipase C (PLC) pathway upon agonist binding to the receptor. As a result, activated PLC hydrolyzes phosphatyl inositol diphosphate (PIP2) to diacylglycerol (DAG) and […] (IP3), which in turn generates calcium release from intracellular stores, i.e., endoplasmic and sarcoplasmic reticulum. The FLIPR (Molecular Devices, Sunnyvale, Calif.) assay capitalizes on this increase in intracellular calcium by using a calcium sensitive dye (Fluo-4AM, Molecular Probes, Eugene, Oreg.) that fluoresces when free calcium binds. This fluorescence event is measured in real time by the FLIPR, which detects the change in fluorescence from a monolayer of cells cloned with human M1 and M3, and chimpanzee M5 receptors. Antagonist potency can be determined by the ability of antagonists to inhibit agonist-mediated increases in intracellular calcium. […]
To determine antagonist potency, the dose-dependent stimulation of intracellular Ca^2+ release for oxotremorine was first determined so that antagonist potency can later be measured against oxotremorine stimulation at an EC90 concentration. […]
The change of fluorescence is expressed as maximum fluorescence minus baseline fluorescence for each well. […]

T1 sequence (P20309 whole entry): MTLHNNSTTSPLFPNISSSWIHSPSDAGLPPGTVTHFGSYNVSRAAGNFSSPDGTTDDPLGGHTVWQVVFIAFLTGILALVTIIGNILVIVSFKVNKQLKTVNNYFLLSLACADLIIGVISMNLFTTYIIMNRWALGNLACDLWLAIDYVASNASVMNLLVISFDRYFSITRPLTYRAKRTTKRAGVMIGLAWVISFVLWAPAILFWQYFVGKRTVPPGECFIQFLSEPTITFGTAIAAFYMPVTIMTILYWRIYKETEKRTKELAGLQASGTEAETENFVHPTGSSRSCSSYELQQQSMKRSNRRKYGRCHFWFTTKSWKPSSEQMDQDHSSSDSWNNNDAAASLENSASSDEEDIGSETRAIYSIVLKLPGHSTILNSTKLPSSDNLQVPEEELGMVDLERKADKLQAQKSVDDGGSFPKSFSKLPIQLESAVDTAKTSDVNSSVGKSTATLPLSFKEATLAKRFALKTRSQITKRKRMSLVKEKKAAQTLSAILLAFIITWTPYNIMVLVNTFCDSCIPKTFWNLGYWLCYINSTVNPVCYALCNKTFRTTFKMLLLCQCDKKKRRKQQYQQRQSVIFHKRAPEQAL
T2 sequence (P20309 whole entry): as above

For the compound `C[N+]1(CCCCCCCCCNC[C@H](O)c2ccc(O)c3[nH]c(=O)ccc23)C2CC(OC(=O)C(O)(c3cccs3)c3cccs3)CC1C1OC12.C[N+]1(CCCCCCCCCNC[C@H](O)c2ccc(O)c3[nH]c(=O)ccc23)C2CC(OC(=O)C(O)(c3cccs3)c3cccs3)CC1C1OC12.O=C([O-])C(F)(F)F.O=C([O-])C(F)(F)F` (stereo partly drawn) [Example 1, 7-(2-Hydroxy-2,2-dithiophen-2-ylacetoxy)-9-{9-[(R)-2-hydroxy-2-(8-hydroxy-2-oxo-1,2-dihydroquinolin-5-yl)ethylamino]nonyl}-9-methyl-3-oxa-9-azonia-tricyclo[3.3.1.0^2,4]nonane Ditrifluoroacetate], the Ki (in experiment [1]; on hM3 receptor) was less than 0.05 µM throughout.
